Data published in PubChem BioAssay (NCI).
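Step 1: Grow cells in 96-well plates. Step 2: Expose to compound for 48 hours at 5 concentrations. Step 3: Interpolate endpoints linearly; if unreached, use highest concentration. GI50 is the concentration that inhibits growth by half. TGI denotes the concentration required for complete inhibition of growth.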

Legend:
Assay in all cases: inhibition of tumour cell growth, NCI panel, 48 h
SR leukemia = test system: SR leukemia
KM12 colon = test system: KM12 colon
M14 melanoma = test system: M14 melanoma
A549 NSCLC = test system: A549 NSCLC
SNB-75 CNS = test system: SNB-75 CNS
MOLT-4 leukemia = test system: MOLT-4 leukemia
K-562 leukemia = test system: K-562 leukemia
SK-MEL-5 melanoma = test system: SK-MEL-5 melanoma
HCT-15 colon = test system: HCT-15 colon
PC-3 prostate = test system: PC-3 prostate

Compound	TGI (SR leukemia)	TGI (KM12 colon)	TGI (M14 melanoma)	TGI (A549 NSCLC)	TGI (SNB-75 CNS)	TGI (MOLT-4 leukemia)	TGI (K-562 leukemia)	TGI (SK-MEL-5 melanoma)	TGI (HCT-15 colon)	TGI (PC-3 prostate)	GI50 (KM12 colon)	GI50 (M14 melanoma)	GI50 (A549 NSCLC)	GI50 (SNB-75 CNS)	GI50 (MOLT-4 leukemia)	GI50 (K-562 leukemia)	GI50 (SK-MEL-5 melanoma)	GI50 (PC-3 prostate)	GI50 (HCT-15 colon)	GI50 (SR leukemia)
CCC(C)(O)c1cn(-c2cccc(S(=O)(=O)O)c2)nn1 (stereo not given)	> 100 µM	> 100 µM	> 100 µM	> 100 µM	> 100 µM	> 100 µM	> 100 µM	> 100 µM	> 100 µM	–	–	–	–	–	–	–	–	–	–	–
CC(C)CC(N)C(=O)O (stereo not given)	–	> 100 µM	> 100 µM	> 100 µM	> 100 µM	> 100 µM	> 100 µM	> 100 µM	> 100 µM	> 100 µM	–	–	–	–	–	–	–	–	–	–
CCCCn1c(-c2ccc(C(=O)O/N=C(\N)c3ccc(OC)cc3)cc2)nc(-c2ccccc2)c1-c1ccccc1	–	> 100 µM	> 100 µM	3.75 µM	3.05 µM	–	–	–	–	–	2.91 µM	3.07 µM	1.21 µM	1.36 µM	–	–	–	–	–	–
COc1ccc(C(=O)O)c(Cc2cccc3ccccc23)c1	> 100 µM	> 100 µM	> 100 µM	> 100 µM	> 100 µM	> 100 µM	> 100 µM	> 100 µM	> 100 µM	–	–	–	–	–	–	–	–	–	–	–
COc1cc2c(/C=C3/C(=O)Nc4cccc(Cl)c43)c(Cl)n(Cc3ccccc3)c2cc1C	–	17.9 µM	> 40.5 µM	> 100 µM	> 100 µM	> 100 µM	> 100 µM	11.5 µM	31.3 µM	> 38 µM	2.46 µM	4.79 µM	4.76 µM	21.1 µM	3.7 µM	5.22 µM	2.17 µM	4.29 µM	3.12 µM	–
Cc1ccc(NC(=O)C2C(=O)N(c3ccc(C)c(C)c3)C(=O)/C2=N/O)cc1C (stereo not given)	–	> 100 µM	> 100 µM	> 100 µM	> 100 µM	> 100 µM	> 100 µM	> 100 µM	> 100 µM	–	–	–	–	–	–	–	–	–	–	–
Nc1c(-c2ccc(Br)cc2)[n+]([O-])c2ccccc2[n+]1[O-]	–	> 100 µM	> 100 µM	> 100 µM	> 100 µM	> 100 µM	> 100 µM	> 100 µM	> 100 µM	–	–	–	–	–	–	–	–	–	–	–
CCCCC/C=C/C/C=C/CCCCCCCC1=NC(C)(C)CN1C(C)C	–	2.96 µM	3.4 µM	3.2 µM	2.87 µM	–	–	–	3.17 µM	3.41 µM	1.61 µM	1.85 µM	1.77 µM	1.44 µM	–	–	–	1.7 µM	1.63 µM	–
COc1cc(C(=O)O[C@H](C(N)=O)[C@]2(C)CO2)c2ccccc2c1	–	32.4 µM	40 µM	73 µM	–	48.9 µM	–	22 µM	70.6 µM	> 100 µM	15.6 µM	15.1 µM	15.4 µM	–	17 µM	–	7.52 µM	25 µM	23.8 µM	–
COC(=O)CSc1n[nH]c(-c2ccc(O)c([N+](=O)[O-])c2)n1	> 100 µM	–	> 100 µM	> 100 µM	> 100 µM	> 100 µM	> 100 µM	> 100 µM	> 100 µM	–	–	–	–	–	–	–	–	–	–	–
CCOC(=O)c1c(C)n(Cc2ccc(OC)cc2)c2c1cc(O)c1[nH]c3c(c12)CCCC3	–	5.43 µM	34.2 µM	71.9 µM	> 100 µM	–	> 100 µM	3.24 µM	13.2 µM	37.4 µM	2.04 µM	11.8 µM	8.71 µM	4.77 µM	–	5.22 µM	1.74 µM	2.86 µM	3.44 µM	–
CCOC(=O)NC(=O)c1cn(CCCOC(=O)NCCCCCCNC(=O)OCCCn2c(=O)c(C(=O)NC(=O)OCC)cn(C)c2=O)c(=O)n(C)c1=O	–	> 100 µM	> 100 µM	> 100 µM	93.9 µM	> 100 µM	> 100 µM	–	> 100 µM	–	–	–	–	–	–	–	–	–	–	–
O=C1C2=C(CC3C(C2)C3(Br)Br)C(=O)C2=C1CC1C(C2)C1(Br)Br (stereo not given)	> 100 µM	> 100 µM	> 100 µM	> 100 µM	> 100 µM	> 100 µM	> 100 µM	> 100 µM	> 100 µM	–	–	–	–	–	–	–	–	–	–	–
N#Cc1cnsc1	> 100 µM	> 100 µM	> 100 µM	> 100 µM	> 100 µM	> 100 µM	> 100 µM	> 100 µM	> 100 µM	–	–	–	–	–	–	–	–	–	–	–
NCCCNCCSSCCCCS(=O)O	29.3 µM	–	44.2 µM	> 100 µM	> 100 µM	47.1 µM	> 100 µM	32.7 µM	> 100 µM	–	–	–	–	–	–	–	–	–	–	–
CC(C)(C)C1=CC(=CC=C2C=CN(CCCCCCCCCCCO)C=C2)C=C(C(C)(C)C)C1=O	–	4.4 µM	3.57 µM	3.58 µM	5.4 µM	4.74 µM	4.87 µM	3.31 µM	> 100 µM	3.68 µM	–	–	–	–	–	–	–	–	–	–
Cc1ccc(N=NC(C(=O)c2ccccc2)C(=O)c2ccccc2)cc1	–	> 100 µM	34.5 µM	> 100 µM	93.4 µM	63 µM	88.2 µM	55.1 µM	43.6 µM	–	–	–	–	–	–	–	–	–	–	–
CCCCCCCCCCCCCCCCOP(=O)(O)Oc1ccc(/C=C\c2ccc(OP(=O)(O)OCCCCCCCCCCCCCCCC)cc2)cc1	47.1 µM	> 100 µM	> 100 µM	> 100 µM	80.8 µM	> 100 µM	> 100 µM	> 100 µM	> 100 µM	–	–	–	–	–	–	–	–	–	–	–
Cc1cc(NS(=O)(=O)c2ccc(NC(=O)c3cccc4c(=O)c5ccccc5[nH]c34)cc2)no1	80.8 µM	> 100 µM	–	> 100 µM	85.4 µM	> 100 µM	> 100 µM	> 100 µM	> 100 µM	–	–	–	–	–	–	–	–	–	–	–
CC(C)=[CH][Sb]([Br])([CH]=C(C)C)([CH]=C(C)C)[CH]=C(C)C	> 100 µM	87.9 µM	37.8 µM	> 100 µM	–	> 100 µM	> 100 µM	24.3 µM	> 100 µM	–	3.63 µM	10.1 µM	19.1 µM	–	18.8 µM	6.7 µM	3.82 µM	–	> 100 µM	10.9 µM
Cc1ccc(C(=O)/C=C/c2ccccc2O)c(C)c1	–	> 100 µM	> 100 µM	> 100 µM	8.01 µM	> 100 µM	> 100 µM	> 100 µM	> 100 µM	–	–	–	–	–	–	–	–	–	–	–
